Test results reported in ChEMBL document CHEMBL1124546, “Synthesis of unsymmetrically substituted 1,4-bis[(aminoalkyl)amino]anthracene-9,10-diones as potential antileukemic agents” (1989).
Values after ≈ are worked out from the molar mass of the structure shown.

Key:
[1] = tested on: P388; assay: Percent ratio of the medium survival time for P388 murine leukemia in CDF1 mice at 40 mg/kg; type: functional, Mus musculus
[2] = tested on: P388; assay: Percent ratio of the medium survival time for P388 murine leukemia in CDF1 mice at 20 mg/kg; type: functional, Mus musculus
[3] = Survivors of CDF1 mice on day 4 after 1st injection of compound at 5 mg/kg in six mice; 6/6; type: functional, Mus musculus
[4] = tested on: P388; assay: Percent ratio of the medium survival time for P388 murine leukemia in CDF1 mice at 80 mg/kg; type: functional, Mus musculus
[5] = tested on: P388; assay: Percent ratio of the medium survival time for P388 murine leukemia in CDF1 mice at 5 mg/kg; type: functional, Mus musculus
[6] = (§1) Survivors of CDF1 mice on day 4 after 1st injection of compound at 40 mg/kg in six mice; 6/6; type: functional, Mus musculus
[7] = Survivors of CDF1 mice on day 4 after 1st injection of compound at 10 mg/kg in six mice; 6/6; type: functional, Mus musculus
[8] = tested on: P388; assay: Percent ratio of the medium survival time for P388 murine leukemia in CDF1 mice at 10 mg/kg; type: functional, Mus musculus
[9] = tested on: L1210; assay: Concentration required to inhibit the growth of L1210 leukemia cells; type: functional; settings: Mus musculus, read-out: ED50 (the source's name)
[10] = (§2) Survivors of CDF1 mice on day 4 after 1st injection of compound 80 at mg/kg in six mice; 6/6; type: functional, Mus musculus
[11] = Survivors of CDF1 mice on day 4 after 1st injection of compound at 20 mg/kg in six mice; 6/6; type: functional, Mus musculus
[12] = Survivors of CDF1 mice on day 4 after 1st injection of compound at 12.5 mg/kg in six mice; 6/6; type: functional, Mus musculus
[13] = tested on: P388; assay: Percent ratio of the medium survival time for P388 murine leukemia in CDF1 mice at 25 mg/kg; type: functional, Mus musculus
[14] = Survivors of CDF1 mice on day 4 after 1st injection of compound 25 at mg/kg in six mice; 6/6; type: functional, Mus musculus
[15] = tested on: P388; assay: Percent ratio of the medium survival time for P388 murine leukemia in CDF1 mice at 12.5 mg/kg; type: functional, Mus musculus
[16] = tested on: P388; assay: Percent ratio of the medium survival time for P388 murine leukemia in CDF1 mice at 3.12 mg/kg; type: functional, Mus musculus
[17] = Survivors of CDF1 mice on day 4 after 1st injection of compound at 6.25 mg/kg in six mice; 6/6; type: functional, Mus musculus
[18] = tested on: P388; assay: Percent ratio of the medium survival time for P388 murine leukemia in CDF1 mice at 6.25 mg/kg; type: functional, Mus musculus
[19] = Survivors of CDF1 mice on day 4 after 1st injection of compound at 3.12 mg/kg in six mice; 6/6; type: functional, Mus musculus
[20] = tested on: P388; assay: Percent ratio of the medium survival time for P388 murine leukemia in CDF1 mice at 12 mg/kg; type: functional, Mus musculus
[21] = tested on: P388; assay: Percent ratio of the medium survival time for P388 murine leukemia in CDF1 mice at 1.5 mg/kg; type: functional, Mus musculus
[22] = Survivors of CDF1 mice on day 4 after 1st injection of compound at 6 mg/kg in six mice; 6/6; type: functional, Mus musculus
[23] = Survivors of CDF1 mice on day 4 after 1st injection of compound at 3 mg/kg in six mice; 6/6; type: functional, Mus musculus
[24] = tested on: P388; assay: Percent ratio of the medium survival time for P388 murine leukemia in CDF1 mice at 3 mg/kg; type: functional, Mus musculus
[25] = Survivors of CDF1 mice on day 4 after 1st injection of compound 12 at mg/kg in six mice; 6/6; type: functional, Mus musculus
[26] = tested on: P388; assay: Percent ratio of the medium survival time for P388 murine leukemia in CDF1 mice at 6 mg/kg; type: functional, Mus musculus
[27] = Survivors of CDF1 mice on day 4 after 1st injection of compound at 0.75 mg/kg in six mice; 6/6; type: functional, Mus musculus
[28] = Survivors of CDF1 mice on day 4 after 1st injection of compound at 1.5 mg/kg in six mice; 6/6; type: functional, Mus musculus
[29] = tested on: P388; assay: Percent ratio of the medium survival time for P388 murine leukemia in CDF1 mice at 0.75 mg/kg; type: functional, Mus musculus
[30] = tested on: P388; assay: as §1; type: functional, Mus musculus
[31] = tested on: P388; assay: as §2; type: functional, Mus musculus
[32] = Survivors of CDF1 mice on day 4 after 1st injection of compound at 5 mg/kg in seven mice; 7/7; type: functional, Mus musculus
[33] = tested on: P388; assay: Percent ratio of the medium survival time for P388 murine leukemia in CDF1 mice at 2.5 mg/kg; type: functional, Mus musculus
[34] = Survivors of CDF1 mice on day 4 after 1st injection of compound at 10 mg/kg in seven mice; 7/7; type: functional, Mus musculus
[35] = Survivors of CDF1 mice on day 4 after 1st injection of compound at 20 mg/kg in seven mice; 7/7; type: functional, Mus musculus
[36] = Survivors of CDF1 mice on day 4 after 1st injection of compound at 1.25 mg/kg in seven mice; 7/7; type: functional, Mus musculus
[37] = Survivors of CDF1 mice on day 4 after 1st injection of compound at 2.5 mg/kg in seven mice; 7/7; type: functional, Mus musculus
[38] = Survivors of CDF1 mice on day 4 after 1st injection of compound 40 at mg/kg in seven mice; 5/7; type: functional, Mus musculus
[39] = tested on: P388; assay: Percent ratio of the medium survival time for P388 murine leukemia in CDF1 mice at 1.25 mg/kg; type: functional, Mus musculus

| SMILES | T/C [1] | T/C [2] | Survival [3] | T/C [5] | Survival [6] | Survival [7] | T/C [8] | EC50 [9] | Survival [10] | Survival [11] | further results |
| --- | --- | --- | --- | --- | --- | --- | --- | --- | --- | --- | --- |
| O=C1c2ccccc2C(=O)c2c(NCCNCCO)ccc(NCCO)c21 | 127% | 142% | 6 | 115% | 6 | 6 | 125% | 12.3 µg/mL (≈ 33.3 µM) | 6 | 6 | T/C [4]: 144% |
| O=C1c2ccccc2C(=O)c2c(NCCNCCO)ccc(NCCNCCO)c21 [AMETANTRONE] |  |  |  |  |  |  |  | 2.54 µg/mL (≈ 6.16 µM) |  |  | Survival [12]: 6; T/C [13]: 200%; Survival [14]: 6; T/C [15]: 300%; T/C [16]: 200%; Survival [17]: 6; T/C [18]: 240%; Survival [19]: 6 |
| O=C1c2c(O)ccc(O)c2C(=O)c2c(NCCNCCO)ccc(NCCNCCO)c21 [MITOXANTRONE] |  |  |  |  |  |  |  |  |  |  | T/C [20]: 118%; T/C [21]: 201%; Survival [22]: 6; Survival [23]: 6; T/C [24]: 288%; Survival [25]: 6; T/C [26]: 192%; Survival [27]: 6; Survival [28]: 6; T/C [29]: 209% |
| CC(C)(CO)NCCNc1ccc(NCCNCCO)c2c1C(=O)c1ccccc1C2=O |  |  | 6 |  |  | 6 | 151% | 1.48 µg/mL (≈ 3.36 µM) |  | 6 | Survival [30]: 6; Survival [31]: 6 |
| O=C1c2ccccc2C(=O)c2c(NCCN3CCOCC3)ccc(NCCNCCO)c21 |  |  | 6 |  | 6 | 6 | 132% | 2.36 µg/mL (≈ 5.38 µM) | 6 | 6 |  |
| NCCNc1ccc(NCCNCCO)c2c1C(=O)c1ccccc1C2=O | 80% | 300% |  | 200% |  |  | 300% | 2.38 µg/mL (≈ 6.46 µM) |  |  | Survival [32]: 7; T/C [33]: 180%; Survival [34]: 7; Survival [35]: 7; Survival [36]: 7; Survival [37]: 7; Survival [38]: 5; T/C [39]: 170% |
| CN(C)CCNc1ccc(NCCNCCO)c2c1C(=O)c1ccccc1C2=O | 192% | 173% | 6 | 144% | 6 | 6 | 151% | 0.64 µg/mL (≈ 1.61 µM) | 6 | 6 | T/C [4]: 192% |
